This is an account of results in PubChem BioAssay (NCI).

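In this assay, cells in 96-well plates receive the compound at five concentrations for 48 hours. Endpoints are linearly interpolated between the surrounding concentrations. GI50 is the concentration that inhibits growth by half. TGI marks complete inhibition of growth.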 Where only a bound is given, the exact number is not on record here.

Common to all, as to assay: NCI tumour cell line growth inhibition, 48 h
Test [1] concerns DU-145 prostate.
Test [2] relates to HOP-92 NSCLC.
Test [3] concerns IGROV1 ovarian.
Test [4] relates to MDA-MB-231 breast.
The subject of test [5] is NCI-H226 lung.
The test system of test [6] is NCI-H460 lung.
Test [7] has as its system NCI-H522 lung.
Test [8] concerns RPMI-8226 leukemia.
Test [9] has as its system SN12C renal.
Test [10] has as its system SW-620 colon.

As for `Cc1ccc2c(c1)C(=O)c1c-2c(OCCCN(C)C)nc2ccccc12`, the GI50 in test [1] is 2.81 µM; in [2] it was 2.18 µM; in [3] it was 1.74 µM; in [4] it was 1.64 µM; in [5], 2.49 µM; in [6], 0.976 µM. Moreover, the GI50 is 1.35 µM in test [7], 2.71 µM in test [8], 2.67 µM in test [9] and 0.587 µM in test [10]. Further, the TGI in [1] is 13.9 µM; in test [2], 11.6 µM; in test [3], 9.94 µM; in test [4], 5.45 µM; in test [5], 13.7 µM; in test [6], 3.2 µM. Moreover, the TGI in [7] is 3.72 µM; in test [8], 7.93 µM; in test [9], 17.7 µM; in test [10], 2.02 µM.

Turning to `C=C1C(=O)O[C@H]2[C@H]1CC/C(COC(=O)OC/C1=C/CC[C@@]3(C)O[C@H]3[C@H]3OC(=O)[C@@H](CN(C)C)[C@@H]3CC1)=C\CC[C@@]1(C)O[C@@H]21`, the GI50 was 1.65 µM in [1]; 0.497 µM in test [2]; 2.3 µM in test [3]; 1.49 µM in test [4]; 2.65 µM in [5]; 5.38 µM in [6]. In addition, the GI50 in [7] was 0.214 µM; in test [8], 0.372 µM; in test [9], 2.79 µM; in test [10] it was 0.445 µM. The TGI in test [1] amounted to 3.32 µM; in test [2], 1.98 µM; in test [3], 8.22 µM; in test [4], 3.07 µM; in test [5] it was 10 µM; in test [6], 19.9 µM. The TGI in [7] was found to be 0.513 µM; in test [8], 1.94 µM; in test [9] it was 10.2 µM; in test [10] it was 1.85 µM.

On to `O=CN1N=C(c2cccc(Nc3ccnc4cc(Cl)ccc34)c2)CC1c1ccccc1` (centres undefined), for which the GI50 in [1] was 0.44 µM; in [2], 0.209 µM; in test [3], 0.687 µM; in test [4] it was 0.858 µM; in test [5], 3.32 µM; in [6], 0.393 µM. Further, the GI50 in test [7] is 0.185 µM; in test [8], 0.471 µM; in test [9], 0.617 µM; in test [10], 0.311 µM. Further, the TGI in test [1] was 16.8 µM; in test [2], 0.787 µM; in test [3], over 100 µM; in test [4], over 21.3 µM; in test [5], over 55.7 µM; in [6], 8.4 µM. For the same compound, the TGI is 0.633 µM in [7], 4.51 µM in test [8], over 54.3 µM in test [9] and 14.7 µM in test [10].

Regarding `CC(=O)O[C@H]1C(=O)[C@@]2(C)[C@H]([C@H](OC(=O)c3ccccc3)[C@]3(O)C[C@H](OC(=O)[C@H](OC(=O)OC[C@H]4COC(C)(C)O4)[C@@H](NC(=O)c4ccccc4)c4ccccc4)C(C)=C1C3(C)C)[C@]1(OC(C)=O)CO[C@@H]1C[C@@H]2O`, the GI50 in [1] was 0.029 µM; in test [2], 0.0519 µM; in [3] it was 0.0494 µM; in test [4] it was 0.0736 µM; in [5] it was 0.29 µM; in [6] it was 0.00601 µM. Also, the GI50 was 0.0324 µM in test [7], 0.00754 µM in test [8], 0.0483 µM in test [9] and 0.0138 µM in test [10]. Further, the TGI was over 33.3 µM in test [2]; over 33.3 µM in [3]; over 7.74 µM in test [4]; over 33.3 µM in [5]; over 33.3 µM in test [6]; over 33.3 µM in [7]. The TGI in [8], in [9] and in test [10] was over 33.3 µM each time.

Take `COc1ccc(/C=C2\SC(=Nc3ccccc3)NC2=O)cc1`: the GI50 is 11.4 µM in test [1]; 7.64 µM in [2]; 13.6 µM in [3]; 4.58 µM in test [4]; 13.8 µM in test [5]; 3.36 µM in test [6]. Also, the GI50 in test [7] was 4.54 µM; in test [8] it was 5.38 µM; in [9], 9.1 µM; in [10], 3.38 µM. Further, the TGI was 71.5 µM in test [1]; 53.5 µM in test [2]; over 100 µM in test [3]; 38.7 µM in test [4]; over 100 µM in test [5]; 13.4 µM in test [6]. In addition, the TGI is 24.9 µM in test [7], over 100 µM in test [8], over 100 µM in test [9] and 24.4 µM in [10].

As to `O=C(Nc1ccc(F)cc1)Nc1ccc(Br)c(C(F)(F)F)c1`, the GI50 in test [1] is 3.27 µM; in test [2] it was 1.63 µM; in test [3], 3.58 µM; in test [4], 2.18 µM; in test [5], 2.73 µM; in test [6], 2.53 µM. Besides, the GI50 is 1.56 µM in test [7], 1.03 µM in test [8], 2.91 µM in [9] and 3.22 µM in test [10]. Also, the TGI was found to be 13.4 µM in test [1]; 5.24 µM in [2]; 15.2 µM in test [3]; 5.33 µM in [4]; 11.1 µM in [5]; 10.4 µM in test [6]. In addition, the TGI turned out to be 5.87 µM in test [7], 4.96 µM in test [8], 11.5 µM in test [9] and 12.7 µM in [10].

Regarding `C[n+]1c2ccccc2nc2ccccc21`, the GI50 is 1.57 µM in test [1]; 1.5 µM in [2]; 2.86 µM in test [3]; 0.359 µM in [4]; 2.63 µM in test [5]; 2.33 µM in test [6]. For the same compound, the GI50 in test [7] was 1.3 µM; in test [8] it was 0.343 µM; in test [9] it was 1.63 µM; in [10], 1.37 µM. Further, the TGI in test [1] amounted to 3.12 µM; in test [2], 4.71 µM; in [3] it was 14 µM; in [4] it was 2.12 µM; in test [5], 9.47 µM; in test [6], 11.2 µM. For the same compound, the TGI was 3.45 µM in [7], 16.3 µM in test [8], 3.41 µM in test [9] and 3.26 µM in test [10].
